Test results as given in patent US20250108064A1, “PHOSPHATE PRODRUGS OF CANNABINOIDS” (priority 2021, published 2025).

How the values were obtained:
[1] = Liver microsome stability assay (HLM); format: in vitro ADME; conditions: human, microsomes, pH 7.4; 3 μM test compound, NADPH; read-out: T½ in HLM
Experimental: General Experimental: Human and mouse liver microsomes were purchased from Xenotech at 20 mg/mL. NADPH (Sigma-Aldrich) 10 mM stocks were prepared in deionized water.
Procedure for Liver Microsome Stability Assay: Test compounds and positive controls were dissolved in 100% DMSO to make 10 mM stock solutions. Verapamil (Sigma-Aldrich) and diphenhydramine (Sigma-Aldrich) were used as positive controls for both human liver microsomes (HLM) and mouse liver microsomes (MLM). The 10 mM stock solutions of test and control compounds were further diluted in potassium phosphate buffer (100 mM, pH 7.4) to 500 μM to ensure that the organic solvent content was <0.2%. The liver microsome (HLM or MLM) assay was prepared in a 1.5 mL Eppendorf tube with a final volume of 1100 μL for duplicate runs. Each reaction contained phosphate buffer (928.4 μL), liver microsomes (55 μL), and test compound (6.6 μL of 500 μM), resulting in a final concentration of 3 μM for the test compound. The reaction was initiated with 110 μL of 10 mM NADPH. Aliquots (100 μL) were removed in duplicate at 0, 5, 10, 15, and 30 min and quenched in […] of 100% cold methanol which contained internal standard (ISTD: d5-7-ethoxy coumarin 2 μM). The aliquots were centrifuged at 12,000 g for 5 min, and the supernatant was transferred and placed in an LC-MS vial. Each time point was assessed by LC-MS/MS, and the area under the m/z curve (AUC), based on the MRM transition, was integrated w.r.t the ISTD. Positive controls were conducted at a final volume of 550 μL to enable a single run for each time point. Negative controls in the absence of NADPH were performed with the test and control compounds, respectively, at a final volume of 150 μL and measured at the most prolonged time point. Control compounds were processed and analyzed like test compounds. Each time point was run in triplicates on LC-MS/MS followed by in-between blank washes to avoid the carryover and to equilibrate the column. Half-life (T1/2) was calculated using the data obtained from LC-MS/MS and by plotting ln (% remaining of the parent prodrug) versus time and performing linear regression to determine slope. Slope=−k and T1/2=0.693/k for first-order kinetics.

physchem = format: physicochemical; conditions: aqueous buffer, kinetic from dmso stock, PBS pH 7.0-7.3, 1% DMSO, 25° C.; for solubility: nephelometry, 90 min
Experimental: General Experimental: Nephelometry experiments were performed using untreated Corning® Costar® 96-well black polystyrene plates with clear flat bottoms. Sample stock solutions and serial dilutions were prepared with DriSolv® DMSO purchased from MilliporeSigma. All 100-fold dilutions and replicate experiments were prepared using Gibco® Dulbecco's phosphate-buffered saline (DPBS, no calcium, no magnesium) with a pH range of 7.0-7.3 as aqueous media. […] Nephelometry data was obtained using a NEPHELOstar® microplate reader and processed with MARS data analysis software from BMG LabTech.
Procedure for Nephelometry Experiments: Tested compounds were dissolved in 100% DMSO to make stock solutions of specified concentrations, ranging from 10 mM minimum up to 50 mM maximum. The sample then underwent serial dilution in a 96-well plate (Corning® Costar®). Well A1 of the plate contained 100% DMSO. […] Using a 12 channel multichannel pipette, 2.5 μL of sample from row A was transferred to each well in row B through row H of the plate. Next, 30 μL of PBS (pH=7.0-7.3) was added to row B through row H, providing each well with 32.5 μL. The plate was then incubated for 30 sec with shaking. Finally, 217.5 μL of PBS buffer was added to row B through row H, and the entire plate was incubated with shaking at 25° C. for 90 min. Note: The final volume of DMSO in actual experiments with PBS buffer was 1% throughout the plate. After 90 min, the 96-well plate was analyzed with a NEPHELOstar® instrument and the data was processed with MARS data analysis software.

[2] = Plasma stability assay (human plasma); format: in vitro ADME; conditions: 37° C.; for half-life: read-out: T½ in human plasma (converted)
Experimental: General Experimental: Procaine and Procainamide were purchased from Sigma-Aldrich. Human plasma was obtained from BioIVT (Cat. No. […]2N) and 1X Dulbecco's PBS (pH 7.4, Gibco) was obtained from Thermos Fischer. Stock solutions were prepared in 100% DMSO, and suitable dilutions of target analytes were prepared in methanol for method development.
Procedure for Plasma Stability Assay: Test compounds were dissolved in DMSO to make a stock solution of 10 mM and then diluted to 500 μM in buffer (or 70% MeOH). Human plasma was thawed at ambient temperature and is aliquoted ([…]) to a 1.5 mL Eppendorf tube in duplicates (A and B) for each compound. Plasma was incubated at 37° C. for 10 minutes in an incubator shaker at 150 rpm; the reaction was initiated by the addition of the test compound (6.0 μL) and vortex mixing. The total reaction volume was 1000 μL where the final organic solvent concentrations were 0.6% MeOH and 0.03% DMSO. The spiked plasma samples were incubated at 37° C. for 4 hrs. The reactions were terminated at time points 0, 15, 30, 60, 120, 180, and 240 min by taking a 100 μL aliquot from the test incubation mixture and immediately quenching it in ice-cold acetonitrile containing internal standard (150 μL with 2 μM ISTD), followed by a quick vortex mixing. In addition, matrix blank was prepared by adding acetonitrile solutions containing ISTD to plasma samples without any of the analytes or control compounds. Also, an additional tube was made to measure compound degradation in PBS buffer. The samples were centrifuged at 15000 rpm for 25 min at 4° C. The supernatant was transferred to an LC-MS vial for analysis by LC/MS-MS. Each time point was run in duplicates followed by in-between blank washes to avoid the carryover and to equilibrate the column. Half-life (T1/2) was calculated using the data obtained from LC-MS/MS and by plotting ln (% remaining of the parent prodrug) versus time and performing linear regression to determine slope. Slope=−k and T1/2=0.693/k for first-order kinetics.
These positive controls were run in parallel to test the systems for competency.

| SMILES | half-life [1] | solubility (physchem) | half-life [2] | half-life at 3 μM [1] | solubility at 90 min (physchem) | half-life at 3 μM ([2]; read-out: T½ in human plasma) | half-life ([2]; unit min) |
| --- | --- | --- | --- | --- | --- | --- | --- |
| C=C(C)[C@@H]1CCC(C)=C[C@H]1c1c(O)cc(CCCCC)cc1OC(=O)C1(OP(=O)(O)OC(C)C)CC1.N [14a, 1-((((1′R,2′R)-6-hydroxy-5′-methyl-4-pentyl-2′-(prop-1-en-2-yl)-1′,2′,3′,4′-tetrahydro-[1,1′-biphenyl]-2-yl)oxy)carbonyl)cyclopropyl isopropyl phosphate ammonium salt] | 0.217 h | > 500 µM | > 3 h |  |  |  |  |
| C=C(C)[C@@H]1CCC(C)=C[C@H]1c1c(O)cc(CCCCC)cc1OC(=O)C1(OP(=O)(O)OCCCCC)CC1.N [14b, 1-((((1′R,2′R)-6-hydroxy-5′-methyl-4-pentyl-2′-(prop-1-en-2-yl)-1′,2′,3′,4′-tetrahydro-[1,1′-biphenyl]-2-yl)oxy)carbonyl)cyclopropyl pentyl phosphate ammonium salt] | 0.4 h | 276 ± 4.52 µM | 9.6 h |  |  |  |  |
| C=C(C)[C@@H]1CCC(C)=C[C@H]1c1c(O)cc(CCCCC)cc1OC(=O)OCCOP(=O)(O)O.N.N [29a, (1′R,2′R)-6-hydroxy-5′-methyl-4-pentyl-2′-(prop-1-en-2-yl)-1′,2′,3′,4′-tetrahydro-[1,1′-biphenyl]-2-yl(2-(phosphonooxy)ethyl) carbonate di-ammonium salt] | 0.7 h | > 500 µM | 16.5 h |  |  |  |  |
| C=C(C)[C@@H]1CCC(C)=C[C@H]1c1c(O)cc(CCCCC)cc1OC(=O)C1(OP(=O)(O)OCc2ccccc2)CC1.N [compound 8, benzyl (1-((((1′R,2′R)-6-hydroxy-5′-methyl-4-pentyl-2′-(prop-1-en-2-yl)-1′,2′,3′,4′-tetrahydro-[1,1′-biphenyl]-2-yl)oxy)carbonyl)cyclopropyl) phosphate ammonium salt] | 0.383 h | 287 ± 13 µM | 5.3 h |  |  |  |  |
| C=C(C)[C@@H]1CCC(C)=C[C@H]1c1c(O)cc(CCCCC)cc1OC(=O)C1(OP(=O)(O)OCCC(C)C)CC1.N [14c, 1-((((1′R,2′R)-6-hydroxy-5′-methyl-4-pentyl-2′-(prop-1-en-2-yl)-1′,2′,3′,4′-tetrahydro-[1,1′-biphenyl]-2-yl)oxy)carbonyl)cyclopropyl isopentyl phosphate ammonium salt] | 0.4 h | 345 ± 4.51 µM | > 4 h |  |  |  |  |
| C=C(C)[C@@H]1CCC(C)=C[C@H]1c1c(O)cc(CCCCC)cc1OC(=O)C1(OP(=O)(O)OCC(CCC)CCC)CC1.N [14h, 1-((((1′R,2′R)-6-hydroxy-5′-methyl-4-pentyl-2′-(prop-1-en-2-yl)-1′,2′,3′,4′-tetrahydro-[1,1′-biphenyl]-2-yl)oxy)carbonyl)cyclopropyl (2-propylpentyl) phosphate ammonium salt] | 0.433 h | 66 ± 3.17 µM | > 4 h |  |  |  |  |
| C=C(C)[C@@H]1CCC(C)=C[C@H]1c1c(O)cc(CCCCC)cc1OC(=O)OCOP(=O)(O)O.N.N [compound 24, (1′R,2′R)-6-hydroxy-5′-methyl-4-pentyl-2′-(prop-1-en-2-yl)-1′,2′,3′,4′-tetrahydro-[1,1′-biphenyl]-2-yl ((phosphonooxy)methyl) carbonate di-ammonium salt] |  | > 500 µM | > 4 h |  |  |  |  |
| C=C(C)[C@@H]1CCC(C)=C[C@H]1c1c(O)cc(CCCCC)cc1OC(=O)NCCCOP(=O)(O)O.N.N [38c, (1′R,2′R)-6-hydroxy-5′-methyl-4-pentyl-2′-(prop-1-en-2-yl)-1′,2′,3′,4′-tetrahydro-[1,1′-biphenyl]-2-yl (3-(phosphonooxy)propyl)carbamate di-ammonium salt] | 1.22 h | > 500 µM | > 4 h |  |  |  |  |
| C=C(C)[C@@H]1CCC(C)=C[C@H]1c1c(O)cc(CCCCC)cc1OC(=O)N(C)CCOP(=O)(O)O.N.N [38b, (1′R,2′R)-6-hydroxy-5′-methyl-4-pentyl-2′-(prop-1-en-2-yl)-1′,2′,3′,4′-tetrahydro-[1,1′-biphenyl]-2-yl methyl(2-(phosphonooxy)ethyl)carbamate di-ammonium salt] |  |  |  | 3.83 h | > 500 µM | > 4 h |  |
| C=C(C)[C@@H]1CCC(C)=C[C@H]1c1c(O)cc(CCCCC)cc1OC(=O)C1(OP(=O)(O)OCCCCCC)CC1.N [14d, hexyl (1-((((1′R,2′R)-6-hydroxy-5′-methyl-4-pentyl-2′-(prop-1-en-2-yl)-1′,2′,3′,4′-tetrahydro-[1,1′-biphenyl]-2-yl)oxy)carbonyl)cyclopropyl) phosphate ammonium salt] | 0.533 h | 98 ± 1.24 µM | > 4 h |  |  |  |  |
| C=C(C)[C@@H]1CCC(C)=C[C@H]1c1c(O)cc(CCCCC)cc1OC(=O)C1(OP(=O)(O)OCCCCCCCCCC)CC1.N [14g, decyl (1-((((1′R,2′R)-6-hydroxy-5′-methyl-4-pentyl-2′-(prop-1-en-2-yl)-1′,2′,3′,4′-tetrahydro-[1,1′-biphenyl]-2-yl)oxy)carbonyl)cyclopropyl) phosphate ammonium salt] | > 0.5 h | 75 ± 2.14 µM | > 4 h |  |  |  |  |
| C=C(C)[C@@H]1CCC(C)=C[C@H]1c1c(O)cc(CCCCC)cc1OC(=O)C1(OP(=O)(O)OCCCCCCCCC)CC1.N [14f, 1-((((1′R,2′R)-6-hydroxy-5′-methyl-4-pentyl-2′-(prop-1-en-2-yl)-1′,2′,3′,4′-tetrahydro-[1,1′-biphenyl]-2-yl)oxy)carbonyl)cyclopropyl nonyl phosphate ammonium salt] | > 0.5 h | 67 ± 5.98 µM | > 4 h |  |  |  |  |
| C=C(C)[C@@H]1CCC(C)=C[C@H]1c1c(O)cc(CCCCC)cc1OC(=O)C(C)(C)OP(=O)(O)O.N.N [7e, 1-(((1′R,2′R)-6-hydroxy-5′-methyl-4-pentyl-2′-(prop-1-en-2-yl)-1′,2′,3′,4′-tetrahydro-[1,1′-biphenyl]-2-yl)oxy)-2-methyl-1-oxopropan-2-yl phosphate di-ammonium salt] |  | > 500 µM |  |  |  |  | 0.4 h |
